Measurements reported in ChEMBL document CHEMBL4296182, “CO-ADD screening of NIH NCI Diversity Set V”.
Converted amounts (≈) assume the structure as drawn.

What was measured:
Staphylococcus aureus = test: microbe, parasite or virus in culture; conditions: ATCC 43300, 18 h, ASSAY_TEST Inhibition of Bacterial Growth, detection method Absorption (OD600), MEDIA CAMHB, plate type 384well, NBS, CORNING #3640
Description: Antibacterial activity against Staphylococcus aureus MRSA ATCC 43300 (CO-ADD:GP_020); MIC in CAMBH media, using NBS plates, by OD(600)

Acinetobacter baumannii = test: microbe, parasite or virus in culture; conditions: ATCC 19606, 18 h, ASSAY_TEST Inhibition of Bacterial Growth, detection method Absorption (OD600), MEDIA CAMHB, plate type 384well, NBS, CORNING #3640
Description: Antibacterial activity against Acinetobacter baumannii ATCC 19606 (CO-ADD:GN_034); MIC in CAMBH media using NBS plates, by OD600

Pseudomonas aeruginosa = test: microbe, parasite or virus in culture; conditions: ATCC 27853, 18 h, ASSAY_TEST Inhibition of Bacterial Growth, detection method Absorption (OD600), MEDIA CAMHB, plate type 384well, NBS, CORNING #3640
Description: Antibacterial activity against Pseudomonas aeruginosa ATCC 27853 (CO-ADD:GN_042); MIC in CAMBH media using NBS plates, by OD(600)

Candida albicans = test: microbe, parasite or virus in culture; conditions: ATCC 90028, ASSAY_TEST Inhibition of Fungal Growth, detection method Absorption (OD530), plate type 384well, NBS, CORNING #3640
Description: Antifungal activity against Candida albicans ATCC 90028 (CO-ADD:FG_001); MIC in YNB media using NBS plates, by OD630

Escherichia coli = test: microbe, parasite or virus in culture; conditions: ATCC 25922, 18 h, ASSAY_TEST Inhibition of Bacterial Growth, detection method Absorption (OD600), MEDIA CAMHB, plate type 384well, NBS, CORNING #3640
Description: Antibacterial activity against Escherichia coli ATCC 25922 (CO-ADD:GN_001); MIC in CAMBH media using NBS plates, by OD(600)

Klebsiella pneumoniae = test: microbe, parasite or virus in culture; conditions: ATCC 700603, 18 h, ASSAY_TEST Inhibition of Bacterial Growth, detection method Absorption (OD600), MEDIA CAMHB, plate type 384well, NBS, CORNING #3640
Description: Antibacterial activity against Klebsiella pneumoniae MDR ATCC 70063 (CO-ADD:GN_003); MIC in CAMBH media using NBS plates, by OD(600)

HEK293 = test: cells; assay type: functional; conditions: Homo sapiens, ATCC CRL1573, HEK293; ASSAY_TEST Inhibition of Cell Viability; detection method Resazurin; Fluorescence (ex560/em590); MEDIA DMEM with 10% FBS; plate type 384well; TC; CORNING #3712; time 18 hr

Description for Cryptococcus neoformans: Antifungal activity against Cryptococcus neoformans H99 ATCC 208821 (CO-ADD:FG_002); MIC in YNB media using NBS plates, by Resazurin OD(600-570)

Compound | MIC (Staphylococcus aureus) [µM] | MIC (Cryptococcus neoformans) [µM] | MIC (Acinetobacter baumannii) [µM] | MIC (Pseudomonas aeruginosa) [µM] | MIC (Candida albicans) [µM] | MIC (Escherichia coli) [µM] | MIC (Klebsiella pneumoniae) [µM] | CC50 (HEK293) [µM]
COC1C(OC(=O)c2ccc(C)[nH]2)C(O)C(Oc2ccc3c(O)c(NC(=O)c4ccc(O)c(CC=C(C)C)c4)c(=O)oc3c2Cl)OC1(C)C (stereo unspecified) | ≤ 0.0781 | > 10 | > 10 | 10 (≈ 6.97 µg/mL) | > 10 | > 10 | > 10 | 9.55
Cc1ccc(C=C2C(Cl)=C(Cl)C(Cl)=C2Cl)cc1 | > 10 | > 10 | > 10 | > 10 | > 10 | > 10 | > 10 | > 10
NC1(N2SC(S)=C3CCCC=C32)CCCCC1 | 10 (≈ 2.68 µg/mL) | > 10 | > 10 | > 10 | > 10 | > 10 | > 10 | > 10
C#CC(c1ccccc1)(c1ccccc1)n1ccnc1 | > 10 | > 10 | > 10 | > 10 | > 10 | > 10 | > 10 | > 10
O=C(Nc1ccc(C2=NCCN2)cc1)c1ccc(C(=O)Nc2ccc(C3=NCCN3)cc2)c(Cl)c1 | > 10 | > 10 | > 10 | > 10 | > 10 | > 10 | > 10 | > 10
O=C1C=CC(=O)N1c1ccc(I)cc1Cl | > 10 | > 10 | > 10 | > 10 | > 10 | > 10 | > 10 | > 10
O=C(Nc1cccc(-c2nc3ccccc3[nH]2)c1)c1ccc(C(=O)Nc2cccc(-c3nc4ccccc4[nH]3)c2)cc1 | > 10 | > 10 | > 10 | > 10 | > 10 | > 10 | > 10 | > 10
Oc1c(/N=N/c2nnn[nH]2)ccc2ccccc12 | > 10 | > 10 | > 10 | > 10 | > 10 | > 10 | > 10 | > 10
O=[N+]([O-])c1cnc(Sc2ccncn2)s1 | > 10 | 5 (≈ 1.2 µg/mL) | > 10 | > 10 | 5 (≈ 1.2 µg/mL) | > 10 | > 10 | > 10
O=[N+]([O-])c1ccc(Sc2cccc[n+]2[O-])c2nonc12 | > 10 | 10 (≈ 2.9 µg/mL) | > 10 | > 10 | 1.25 (≈ 0.363 µg/mL) | > 10 | > 10 | 2.53
Nc1ncnc2c1ncn2C1OC(COS(N)(=O)=O)C(O)C1O (stereo unspecified) | 5 (≈ 1.73 µg/mL) | > 10 | > 10 | > 10 | > 10 | > 10 | > 10 | 0.227
Sc1nc2ccc(Cl)cc2s1 | > 10 | > 10 | > 10 | > 10 | 10 (≈ 2.02 µg/mL) | > 10 | > 10 | > 10
Nc1nc(N)c2c(ccc3[nH]ccc32)n1 | > 10 | > 10 | > 10 | > 10 | > 10 | > 10 | > 10 | > 10
Oc1c(CN2CCN(c3ccccc3)CC2)cc(Br)c2cccnc12 | > 10 | > 10 | > 10 | > 10 | > 10 | > 10 | > 10 | > 10
C=Cc1cc(OC)c2c(c1)c(=O)oc1c2cc(OC)c2c(O)ccc(C3OC(C)C(O)C(C)(O)C3O)c21 (stereo unspecified) | 0.156 (≈ 0.0795 µg/mL) | > 10 | > 10 | > 10 | > 10 | > 10 | > 10 | 1.85
NC(=S)c1cn(C2OC(CO)C(O)C2O)c2ncnc(N)c12 (stereo unspecified) | > 10 | > 10 | > 10 | > 10 | 10 (≈ 3.25 µg/mL) | > 10 | > 10 | 0.521
CSc1nc(C)c(Br)c(N2CC2)n1 | > 10 | > 10 | > 10 | > 10 | > 10 | > 10 | > 10 | > 10
